Key:
[1] = format: physicochemical
Experimental: Synthesis of Compound 1: Selenium (31.0 mg, 0.39 mmol, 1.00 equiv.) was suspended in an aqueous solution of 1M NaOH (6 mL) under Ar atmosphere. To the solution, Rongalite (i.e., sodium hydroxymethanesulfinate, Na^+HOCH2SO2^−) (120.0 mg, 0.78 mmol, 2.00 equiv.) was added and stirred vigorously. Then, the reaction solution was heated to 80° C. using an oil bath. After reacting for 0.5 h, hepta-4,6-diynoic acid (44.0 mg, 0.36 mmol, 0.92 equiv.) in ethanol (4 mL) was added and the reaction mixture was reacted at 80° C. for an additional 5 h. The reaction was allowed to cool to room temperature and diluted with a saturated NH4Cl aqueous solution (10 mL). The solution was transferred to separatory funnel and extracted with EtOAc (20 mL×3). The combined organic layer was washed with brine (50 mL) and dried over MgSO4, filtered, concentrated, and purified by flash chromatography (20:1 hexanes:ethyl acetate to 10:1 to 5:1 to 2:1 to 1:1) to yield selenium compound 1 in 45% yield (36 mg). Isotopically pure compounds were also prepared by following the above described procedure.

[2] = tested on: peripheral blood mononuclear cells (PBMC); experiment: Labeling of PBMC with SeMal reagents, mass cytometry; format: cell-based; conditions: viable, fixed and fixed and permeabilized PBMC
Experimental: (§1) 3×10^6 viable, paraformaldehyde-fixed, or fixed and permeabilized peripheral blood mononuclear cells (PBMC) were incubated for 15 min with the indicated concentration of SeMal reagent in 0.2 ml PBS. Binding reactions were stopped by the addition of 5-fold excess volume of Cell Staining Buffer (Fluidigm) followed by incubation with Iridium using standard protocols. Data representations are from gated viable single cells. Cell viability […] incubation (for the viable cell condition) was >98%.

[3] = tested on: viable peripheral blood mononuclear cells (PBMC); experiment: Cell viability after SeMal incubation; format: cell-based; conditions: at working concentrations
Experimental: as §1

| Structure (SMILES) | stability on storage [1] | labeling of PBMC [2] | toxicity when labeling viable cells [3] |
| --- | --- | --- | --- |
| O=C(O)CCc1ccc[se]1 [Compound 1] | sufficient stability | – | – |
| O=C(CCc1ccc[se]1)NCCN1C(=O)C=CC1=O [Compound 2] | – | effectively label | non-toxic |

From patent US20240262818A1, “Selenium Maleimide Compounds And Uses Thereof” (THE UNIVERSITY OF NORTH CAROLINA AT CHAPEL HILL, priority 2021, published 2024)
